One block for each compound: values may come before it.
Columns and labels:
[1] = biological target: Cyclin-dependent kinase 1/cyclin B1 (Homo sapiens) (UniProt P06493+P14635); assay: Inhibition of CDK1/cyclinB (unknown origin) at 0.1 uM relative to control; format: protein-complex assay
[2] = biological target: Mitogen-activated protein kinase 3 (Homo sapiens) (UniProt P27361); assay: Inhibition of ERK1 (unknown origin) at 0.1 uM relative to control
[3] = biological target: Fibroblast growth factor receptor 1 (Homo sapiens) (UniProt P11362); assay: Inhibition of FGFR1 (unknown origin) at 0.1 uM relative to control
Chain of Fibroblast growth factor receptor 1 (Homo sapiens) (P11362 22-822 limits assumed): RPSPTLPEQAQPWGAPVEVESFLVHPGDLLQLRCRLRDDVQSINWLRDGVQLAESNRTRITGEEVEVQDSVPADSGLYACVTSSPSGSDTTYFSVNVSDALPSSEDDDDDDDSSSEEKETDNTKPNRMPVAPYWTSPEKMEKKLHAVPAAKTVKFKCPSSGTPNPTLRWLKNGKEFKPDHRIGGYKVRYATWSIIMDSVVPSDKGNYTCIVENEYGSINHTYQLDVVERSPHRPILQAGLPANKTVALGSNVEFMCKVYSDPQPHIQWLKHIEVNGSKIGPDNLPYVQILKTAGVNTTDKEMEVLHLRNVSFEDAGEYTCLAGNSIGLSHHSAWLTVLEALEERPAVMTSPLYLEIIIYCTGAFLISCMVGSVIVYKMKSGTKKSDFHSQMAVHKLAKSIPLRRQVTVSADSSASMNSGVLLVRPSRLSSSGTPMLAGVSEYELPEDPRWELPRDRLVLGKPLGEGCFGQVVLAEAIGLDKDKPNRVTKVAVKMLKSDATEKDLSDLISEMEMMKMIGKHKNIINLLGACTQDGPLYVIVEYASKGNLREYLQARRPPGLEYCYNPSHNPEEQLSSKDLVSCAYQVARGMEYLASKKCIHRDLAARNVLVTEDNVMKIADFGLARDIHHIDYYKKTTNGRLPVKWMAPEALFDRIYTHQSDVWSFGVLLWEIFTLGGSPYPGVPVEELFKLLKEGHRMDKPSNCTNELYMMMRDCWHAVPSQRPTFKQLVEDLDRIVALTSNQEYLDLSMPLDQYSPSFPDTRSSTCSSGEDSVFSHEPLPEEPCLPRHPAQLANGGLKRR

[4] = biological target: Inhibitor of nuclear factor kappa-B kinase subunit beta (Homo sapiens) (UniProt O14920); assay: Inhibition of IKK beta (unknown origin) at 0.1 uM relative to control
[5] = biological target: Insulin receptor-related protein (Homo sapiens) (UniProt P14616); assay: Inhibition of IRR (unknown origin) at 0.1 uM relative to control
Chain of Insulin receptor-related protein (Homo sapiens) (P14616 27-742 limits assumed): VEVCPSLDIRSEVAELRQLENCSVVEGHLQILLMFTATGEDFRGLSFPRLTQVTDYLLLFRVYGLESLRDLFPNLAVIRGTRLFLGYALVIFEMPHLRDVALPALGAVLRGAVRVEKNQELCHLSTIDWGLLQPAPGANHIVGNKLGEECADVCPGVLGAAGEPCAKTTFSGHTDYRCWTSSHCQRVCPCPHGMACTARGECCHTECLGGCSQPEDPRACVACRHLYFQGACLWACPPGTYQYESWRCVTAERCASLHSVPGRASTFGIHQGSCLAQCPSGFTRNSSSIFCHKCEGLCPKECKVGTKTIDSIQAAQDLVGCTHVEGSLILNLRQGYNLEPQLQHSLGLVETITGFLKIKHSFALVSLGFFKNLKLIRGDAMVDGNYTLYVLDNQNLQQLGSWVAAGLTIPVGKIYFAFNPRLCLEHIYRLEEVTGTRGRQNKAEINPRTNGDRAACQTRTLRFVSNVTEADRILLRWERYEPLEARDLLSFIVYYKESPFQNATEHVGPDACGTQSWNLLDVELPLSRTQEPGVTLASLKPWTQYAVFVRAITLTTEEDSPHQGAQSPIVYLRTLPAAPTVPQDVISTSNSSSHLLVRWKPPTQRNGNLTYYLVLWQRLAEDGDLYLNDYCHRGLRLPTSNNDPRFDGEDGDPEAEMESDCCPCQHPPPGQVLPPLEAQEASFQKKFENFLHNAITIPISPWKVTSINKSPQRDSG
Chain of Insulin receptor-related protein (Homo sapiens) (P14616 747-1297 limits assumed): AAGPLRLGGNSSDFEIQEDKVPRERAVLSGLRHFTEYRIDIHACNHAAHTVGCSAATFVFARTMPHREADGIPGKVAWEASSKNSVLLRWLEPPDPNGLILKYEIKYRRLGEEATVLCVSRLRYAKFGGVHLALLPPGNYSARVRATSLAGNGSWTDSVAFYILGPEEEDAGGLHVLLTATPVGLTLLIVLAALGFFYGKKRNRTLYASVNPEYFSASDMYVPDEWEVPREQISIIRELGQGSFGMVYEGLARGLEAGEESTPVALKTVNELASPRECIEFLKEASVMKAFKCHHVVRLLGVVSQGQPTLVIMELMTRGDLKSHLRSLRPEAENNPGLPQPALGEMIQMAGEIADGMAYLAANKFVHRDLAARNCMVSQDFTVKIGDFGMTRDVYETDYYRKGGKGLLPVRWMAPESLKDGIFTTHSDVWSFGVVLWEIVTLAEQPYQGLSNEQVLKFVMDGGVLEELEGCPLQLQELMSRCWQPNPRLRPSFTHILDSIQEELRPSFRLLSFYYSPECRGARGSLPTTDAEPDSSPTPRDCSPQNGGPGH

[6] = biological target: Macrophage-stimulating protein receptor (Homo sapiens) (UniProt Q04912); assay: Inhibition of Ron (unknown origin) at 0.1 uM relative to control
[7] = biological target: Ribosomal protein S6 kinase alpha-6 (Homo sapiens) (UniProt Q9UK32); assay: Inhibition of Rsk4 (unknown origin) at 0.1 uM relative to control
Chain of Ribosomal protein S6 kinase alpha-6 (Homo sapiens) (Q9UK32 whole entry): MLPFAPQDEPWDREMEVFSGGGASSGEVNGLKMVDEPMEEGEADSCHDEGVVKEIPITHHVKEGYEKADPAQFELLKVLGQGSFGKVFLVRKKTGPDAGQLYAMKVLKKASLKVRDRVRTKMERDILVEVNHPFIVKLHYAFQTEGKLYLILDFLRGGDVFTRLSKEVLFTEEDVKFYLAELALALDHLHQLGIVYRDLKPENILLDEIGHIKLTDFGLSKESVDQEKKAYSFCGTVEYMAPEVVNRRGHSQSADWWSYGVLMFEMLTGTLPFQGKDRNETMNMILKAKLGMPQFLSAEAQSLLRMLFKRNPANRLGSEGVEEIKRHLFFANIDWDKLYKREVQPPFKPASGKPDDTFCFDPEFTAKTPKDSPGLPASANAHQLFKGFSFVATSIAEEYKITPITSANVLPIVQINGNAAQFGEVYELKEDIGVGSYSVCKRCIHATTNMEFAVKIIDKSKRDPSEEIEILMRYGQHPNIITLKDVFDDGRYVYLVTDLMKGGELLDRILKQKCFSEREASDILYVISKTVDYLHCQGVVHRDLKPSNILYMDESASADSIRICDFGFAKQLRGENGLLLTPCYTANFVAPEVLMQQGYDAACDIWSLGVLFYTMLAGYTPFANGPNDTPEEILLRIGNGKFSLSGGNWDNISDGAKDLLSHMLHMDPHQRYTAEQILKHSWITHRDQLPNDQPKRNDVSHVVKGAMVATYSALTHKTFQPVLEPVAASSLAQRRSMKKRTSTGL

[8] = biological target: Cyclin-dependent kinase 7/ cyclin H (Homo sapiens) (UniProt P51946+P50613); assay: Inhibition of CDK7/CyclinH (unknown origin) at 0.1 uM relative to control; format: protein-complex assay
[9] = biological target: Leucine-rich repeat serine/threonine-protein kinase 2 (Homo sapiens) (UniProt Q5S007); assay: Inhibition of LRRK2 (unknown origin) at 0.1 uM relative to control
[10] = biological target: TGF-beta receptor type-1 (Homo sapiens) (UniProt P36897); assay: Inhibition of TGFBR1 (unknown origin) at 0.1 uM relative to control
[11] = biological target: T1, Cyclin-dependent kinase 5/CDK5 activator 1 (Homo sapiens) (UniProt Q00535+Q15078); assay: Inhibition of CDK5/p25 (unknown origin) at 0.1 uM relative to control; format: protein-complex assay
T1 sequence (Q00535 whole entry): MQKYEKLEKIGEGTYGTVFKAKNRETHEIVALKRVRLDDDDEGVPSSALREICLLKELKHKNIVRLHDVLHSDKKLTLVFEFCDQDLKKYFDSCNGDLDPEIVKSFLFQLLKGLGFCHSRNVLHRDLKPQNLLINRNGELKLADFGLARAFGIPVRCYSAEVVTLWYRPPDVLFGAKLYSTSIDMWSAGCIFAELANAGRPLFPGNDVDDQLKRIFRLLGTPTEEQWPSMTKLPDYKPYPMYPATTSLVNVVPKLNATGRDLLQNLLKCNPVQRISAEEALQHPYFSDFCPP
T1 sequence (Q15078 99-307 partner limits assumed): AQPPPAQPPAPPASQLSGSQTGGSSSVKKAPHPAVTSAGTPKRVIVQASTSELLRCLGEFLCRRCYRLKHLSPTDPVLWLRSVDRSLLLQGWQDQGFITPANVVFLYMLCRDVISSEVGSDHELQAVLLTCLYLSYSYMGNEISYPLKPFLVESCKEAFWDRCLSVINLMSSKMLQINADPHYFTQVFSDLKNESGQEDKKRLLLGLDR

[12] = biological target: T1, Cyclin-dependent kinase 5/CDK5 activator 1 (Homo sapiens); assay: Inhibition of CDK5/p35 (unknown origin) at 0.1 uM relative to control; format: protein-complex assay
[13] = biological target: Calcium/calmodulin-dependent protein kinase type II subunit delta (Homo sapiens) (UniProt Q13557); assay: Inhibition of CaMKIIdelta (unknown origin) at 0.1 uM relative to control
[14] = biological target: Calcium/calmodulin-dependent protein kinase type IV (Homo sapiens) (UniProt Q16566); assay: Inhibition of CamKIV (unknown origin) at 0.1 uM relative to control
[15] = biological target: DNA-PK/Ku70/Ku85 (Homo sapiens) (UniProt P78527+P12956+P13010); assay: Inhibition of DNA-PK (unknown origin) at 0.1 uM relative to control; format: protein-complex assay
[16] = biological target: Dual specificity tyrosine-phosphorylation-regulated kinase 4 (Homo sapiens) (UniProt Q9NR20); assay: Inhibition of DYRK4 (unknown origin) at 0.1 uM relative to control
[17] = biological target: Ephrin type-A receptor 8 (Homo sapiens) (UniProt P29322); assay: Inhibition of EphA8 (unknown origin) at 0.1 uM relative to control
[18] = biological target: G protein-coupled receptor kinase 5 (Homo sapiens) (UniProt P34947); assay: Inhibition of GRK5 (unknown origin) at 0.1 uM relative to control
[19] = biological target: G protein-coupled receptor kinase 6 (Homo sapiens) (UniProt P43250); assay: Inhibition of GRK6 (unknown origin) at 0.1 uM relative to control
[20] = biological target: Insulin receptor (Homo sapiens) (UniProt P06213); assay: Inhibition of InsR (unknown origin) at 0.1 uM relative to control
[21] = biological target: Leukocyte tyrosine kinase receptor (Homo sapiens) (UniProt P29376); assay: Inhibition of LTK (unknown origin) at 0.1 uM relative to control
[22] = biological target: Tyrosine-protein kinase Lyn (Homo sapiens) (UniProt P07948); assay: Inhibition of Lyn (unknown origin) at 0.1 uM relative to control
[23] = biological target: MAP kinase-activated protein kinase 2 (Homo sapiens) (UniProt P49137); assay: Inhibition of MAPKAPK2 (unknown origin) at 0.1 uM relative to control
[24] = biological target: Ribosomal protein S6 kinase alpha-5 (Homo sapiens) (UniProt O75582); assay: Inhibition of MSK1 (unknown origin) at 0.1 uM relative to control
[25] = biological target: Serine/threonine-protein kinase 3 (Homo sapiens) (UniProt Q13188); assay: Inhibition of MST2 (unknown origin) at 0.1 uM relative to control
[26] = biological target: Muscle, skeletal receptor tyrosine-protein kinase (Homo sapiens) (UniProt O15146); assay: Inhibition of MUSK (unknown origin) at 0.1 uM relative to control
[27] = biological target: Serine/threonine-protein kinase Nek2 (Homo sapiens) (UniProt P51955); assay: Inhibition of NEK2 (unknown origin) at 0.1 uM relative to control
[28] = biological target: Mitogen-activated protein kinase kinase kinase kinase 4 (Homo sapiens) (UniProt O95819); assay: Inhibition of NIK (unknown origin) at 0.1 uM relative to control
[29] = biological target: Serine/threonine-protein kinase pim-2 (Homo sapiens) (UniProt Q9P1W9); assay: Inhibition of PIM2 (unknown origin) at 0.1 uM relative to control
Chain of Serine/threonine-protein kinase pim-2 (Homo sapiens) (Q9P1W9 whole entry, looked up): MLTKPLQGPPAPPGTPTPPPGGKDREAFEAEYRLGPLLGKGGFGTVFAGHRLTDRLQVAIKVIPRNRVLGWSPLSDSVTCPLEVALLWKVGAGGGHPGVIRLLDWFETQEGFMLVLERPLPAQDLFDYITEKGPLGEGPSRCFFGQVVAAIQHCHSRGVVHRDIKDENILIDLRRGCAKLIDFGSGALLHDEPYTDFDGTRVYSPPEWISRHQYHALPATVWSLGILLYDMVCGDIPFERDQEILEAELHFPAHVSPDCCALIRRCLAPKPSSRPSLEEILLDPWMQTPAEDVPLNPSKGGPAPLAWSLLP

[30] = biological target: Protein kinase C epsilon type (Homo sapiens) (UniProt Q02156); assay: Inhibition of PKCepsilon (unknown origin) at 0.1 uM relative to control
[31] = biological target: Protein kinase C theta type (Homo sapiens) (UniProt Q04759); assay: Inhibition of PKCtheta (unknown origin) at 0.1 uM relative to control
[32] = biological target: cGMP-dependent protein kinase 1 (Homo sapiens) (UniProt Q13976); assay: Inhibition of PKG1alpha (unknown origin) at 0.1 uM relative to control
[33] = biological target: cAMP-dependent protein kinase catalytic subunit PRKX (Homo sapiens) (UniProt P51817); assay: Inhibition of PrKX (unknown origin) at 0.1 uM relative to control
[34] = biological target: Rho-associated protein kinase 1 (Homo sapiens) (UniProt Q13464); assay: Inhibition of ROCK1 (unknown origin) at 0.1 uM relative to control
[35] = biological target: Rho-associated protein kinase 2 (Homo sapiens) (UniProt O75116); assay: Inhibition of ROCK2 (unknown origin) at 0.1 uM relative to control
[36] = biological target: Death-associated protein kinase 3 (Homo sapiens) (UniProt O43293); assay: Inhibition of ZIPK (unknown origin) at 0.1 uM relative to control
[37] = biological target: Eukaryotic elongation factor 2 kinase (Homo sapiens) (UniProt O00418); assay: Inhibition of eEF-2K (unknown origin) at 0.1 uM relative to control
[38] = biological target: Serine/threonine-protein kinase mTOR (Homo sapiens) (UniProt P42345); assay: Inhibition of mTOR (unknown origin) at 0.1 uM relative to control
[39] = biological target: Mitogen-activated protein kinase 12 (Homo sapiens) (UniProt P53778); assay: Inhibition of p38gamma (unknown origin) at 0.1 uM relative to control

Chain of Cyclin-dependent kinase 1/cyclin B1 (Homo sapiens) (P06493 whole entry, looked up): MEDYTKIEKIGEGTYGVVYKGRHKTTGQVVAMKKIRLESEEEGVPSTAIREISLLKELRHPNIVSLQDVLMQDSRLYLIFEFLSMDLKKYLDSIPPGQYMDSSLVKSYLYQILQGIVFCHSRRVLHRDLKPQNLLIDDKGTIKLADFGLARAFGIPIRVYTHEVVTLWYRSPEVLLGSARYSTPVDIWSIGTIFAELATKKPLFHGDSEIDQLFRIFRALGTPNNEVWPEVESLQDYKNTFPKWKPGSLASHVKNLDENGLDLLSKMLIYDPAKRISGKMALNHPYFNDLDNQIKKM
Chain of Cyclin-dependent kinase 1/cyclin B1 (Homo sapiens) (P14635 whole entry, looked up): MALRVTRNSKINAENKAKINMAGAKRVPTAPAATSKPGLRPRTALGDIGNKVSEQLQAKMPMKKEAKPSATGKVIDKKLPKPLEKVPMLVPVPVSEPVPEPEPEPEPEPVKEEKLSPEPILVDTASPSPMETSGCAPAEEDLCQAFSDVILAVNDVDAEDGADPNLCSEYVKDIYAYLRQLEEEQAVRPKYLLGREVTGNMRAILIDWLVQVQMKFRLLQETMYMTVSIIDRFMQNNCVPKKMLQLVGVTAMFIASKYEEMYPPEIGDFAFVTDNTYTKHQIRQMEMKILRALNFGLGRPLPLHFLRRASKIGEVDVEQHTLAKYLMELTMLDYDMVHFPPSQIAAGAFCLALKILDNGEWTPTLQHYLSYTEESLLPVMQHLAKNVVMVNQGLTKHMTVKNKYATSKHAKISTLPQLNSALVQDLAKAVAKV
Chain of Mitogen-activated protein kinase 3 (Homo sapiens) (P27361 whole entry): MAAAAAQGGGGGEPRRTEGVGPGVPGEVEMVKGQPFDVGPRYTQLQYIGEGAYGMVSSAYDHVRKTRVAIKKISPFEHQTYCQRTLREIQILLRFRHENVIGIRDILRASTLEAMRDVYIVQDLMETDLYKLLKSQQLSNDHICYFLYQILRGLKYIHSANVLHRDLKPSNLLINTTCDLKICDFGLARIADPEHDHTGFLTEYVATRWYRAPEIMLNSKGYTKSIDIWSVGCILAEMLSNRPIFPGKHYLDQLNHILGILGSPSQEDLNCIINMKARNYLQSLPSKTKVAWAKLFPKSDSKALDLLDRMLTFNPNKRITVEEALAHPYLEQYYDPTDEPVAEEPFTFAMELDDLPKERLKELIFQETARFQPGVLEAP

inhibition [1]: 16.5% | inhibition [2]: 12.3% | inhibition [3]: 83% | inhibition [4]: 3.3% | inhibition [5]: 14.5% | inhibition [6]: 92.1% | inhibition [7]: 11.9% | inhibition [8]: 31% | inhibition [9]: 48.2% | inhibition [10]: 99.3%
Compound: CN1CCc2cc(-c3cnc4[nH]cc(C(=O)c5ccccc5Cl)c4c3)ccc2C1

inhibition [1]: 8.1% | inhibition [11]: 4.3% | inhibition [12]: -1.6% | inhibition [13]: 6.9% | inhibition [14]: -6.6% | inhibition [15]: -6.3% | inhibition [16]: -3% | inhibition [2]: 6.2% | inhibition [17]: 9.8% | inhibition [3]: -4.5% | inhibition [18]: 2.5% | inhibition [19]: 11.7% | inhibition [4]: 6.5% | inhibition [5]: 7.4% | inhibition [20]: 3.5% | inhibition [21]: -0.9% | inhibition [22]: -2.7% | inhibition [23]: 3.9% | inhibition [24]: 4.2% | inhibition [25]: 8.8% | inhibition [26]: -2.8% | inhibition [27]: 6.3% | inhibition [28]: -0.5% | inhibition [29]: 8.4% | inhibition [30]: 8.3% | inhibition [31]: 12.3% | inhibition [32]: 9.3% | inhibition [33]: 5.3% | inhibition [34]: 0.8% | inhibition [35]: 0.5% | inhibition [6]: 0.3% | inhibition [7]: 2.4% | inhibition [37]: 4.3% | inhibition [38]: -2.4% | inhibition [39]: 8.1%
Compound: COCCNc1nc2ccc(C#CC3(O)CCCCC3)cc2n1-c1ccnc(N)n1
inhibition [36]: 2.9%

Source: ChEMBL document CHEMBL5678812, “Inhibitors of p21-activated kinases (PAKs)” (J Med Chem, 2015)
